ChEMBL document CHEMBL5291721, “A preclinical secondary pharmacology resource illuminates target-adverse drug reaction associations of marketed drugs” (Nat Commun, 2023)

Key:
[1] = biological target: Voltage-dependent L-type calcium channel subunit alpha-1C (Rattus norvegicus, UniProt P22002); type: functional
Estrogen receptor = biological target: T1, Estrogen receptor (Homo sapiens, UniProt P03372)
T1 sequence (P03372 whole entry): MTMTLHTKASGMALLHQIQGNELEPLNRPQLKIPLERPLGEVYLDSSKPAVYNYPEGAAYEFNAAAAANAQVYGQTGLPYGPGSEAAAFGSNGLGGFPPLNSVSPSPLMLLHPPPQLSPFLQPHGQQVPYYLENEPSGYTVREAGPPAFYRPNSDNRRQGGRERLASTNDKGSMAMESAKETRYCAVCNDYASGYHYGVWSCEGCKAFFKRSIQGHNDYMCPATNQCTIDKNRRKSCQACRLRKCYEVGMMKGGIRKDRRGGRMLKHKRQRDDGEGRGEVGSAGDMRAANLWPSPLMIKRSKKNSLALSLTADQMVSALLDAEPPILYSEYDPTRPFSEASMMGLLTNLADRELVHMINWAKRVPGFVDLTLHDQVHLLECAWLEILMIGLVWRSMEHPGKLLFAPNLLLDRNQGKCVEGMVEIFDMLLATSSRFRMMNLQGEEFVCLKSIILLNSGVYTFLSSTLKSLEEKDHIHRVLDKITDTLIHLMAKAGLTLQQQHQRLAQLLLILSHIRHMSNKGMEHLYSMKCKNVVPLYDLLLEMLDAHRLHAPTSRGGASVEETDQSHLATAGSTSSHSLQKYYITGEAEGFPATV

[2] = biological target: T2, 5-hydroxytryptamine receptor 3A (Homo sapiens, UniProt P46098); type: functional
T2 sequence (P46098 whole entry): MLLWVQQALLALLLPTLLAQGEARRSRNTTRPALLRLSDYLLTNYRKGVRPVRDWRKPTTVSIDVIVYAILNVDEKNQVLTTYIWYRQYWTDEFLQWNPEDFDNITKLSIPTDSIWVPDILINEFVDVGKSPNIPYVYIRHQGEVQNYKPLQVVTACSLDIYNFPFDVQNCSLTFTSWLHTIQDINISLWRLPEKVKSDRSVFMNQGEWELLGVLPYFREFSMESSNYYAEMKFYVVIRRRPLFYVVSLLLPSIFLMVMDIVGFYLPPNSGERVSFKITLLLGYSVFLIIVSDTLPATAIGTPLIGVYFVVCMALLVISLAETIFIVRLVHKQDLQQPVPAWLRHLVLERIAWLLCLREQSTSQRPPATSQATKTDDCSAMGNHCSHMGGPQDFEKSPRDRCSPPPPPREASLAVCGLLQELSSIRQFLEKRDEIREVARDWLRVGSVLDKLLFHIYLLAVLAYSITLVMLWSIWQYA

Endothelin-1 receptor = biological target: T3, Endothelin-1 receptor (Homo sapiens, UniProt P25101)
T3 sequence (P25101 whole entry): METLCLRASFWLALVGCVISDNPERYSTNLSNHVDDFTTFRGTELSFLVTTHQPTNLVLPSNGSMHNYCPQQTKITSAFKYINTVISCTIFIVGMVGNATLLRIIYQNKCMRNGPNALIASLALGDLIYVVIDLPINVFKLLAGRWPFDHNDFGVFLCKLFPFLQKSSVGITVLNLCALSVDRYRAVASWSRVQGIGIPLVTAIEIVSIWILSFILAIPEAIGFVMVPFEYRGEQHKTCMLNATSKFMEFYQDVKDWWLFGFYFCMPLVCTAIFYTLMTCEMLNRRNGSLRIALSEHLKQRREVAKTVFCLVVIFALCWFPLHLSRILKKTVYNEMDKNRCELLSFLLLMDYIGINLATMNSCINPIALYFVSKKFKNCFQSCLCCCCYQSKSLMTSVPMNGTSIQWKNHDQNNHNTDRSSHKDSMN

[3] = biological target: Sodium-dependent noradrenaline transporter (Homo sapiens, UniProt P23975)
Sodium-dependent noradrenaline transporter, sequence (P23975 whole entry): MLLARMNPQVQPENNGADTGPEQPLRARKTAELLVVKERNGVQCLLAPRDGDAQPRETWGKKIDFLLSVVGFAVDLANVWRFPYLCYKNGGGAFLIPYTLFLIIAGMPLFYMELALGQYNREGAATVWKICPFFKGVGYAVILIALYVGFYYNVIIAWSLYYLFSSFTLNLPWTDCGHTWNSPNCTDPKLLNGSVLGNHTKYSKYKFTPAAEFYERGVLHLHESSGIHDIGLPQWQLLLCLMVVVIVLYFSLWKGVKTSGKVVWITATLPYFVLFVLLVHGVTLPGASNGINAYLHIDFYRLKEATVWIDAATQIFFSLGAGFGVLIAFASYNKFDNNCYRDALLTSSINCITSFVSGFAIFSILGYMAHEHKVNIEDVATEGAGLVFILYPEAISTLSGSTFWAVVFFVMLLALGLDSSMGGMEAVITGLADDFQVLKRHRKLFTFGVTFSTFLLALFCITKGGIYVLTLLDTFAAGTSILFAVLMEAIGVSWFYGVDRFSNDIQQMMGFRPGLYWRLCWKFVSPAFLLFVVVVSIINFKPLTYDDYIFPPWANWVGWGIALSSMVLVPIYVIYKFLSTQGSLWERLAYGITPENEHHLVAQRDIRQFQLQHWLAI

D(3) dopamine receptor = D(3) dopamine receptor (Homo sapiens, UniProt P35462)
D(3) dopamine receptor, sequence (P35462 whole entry): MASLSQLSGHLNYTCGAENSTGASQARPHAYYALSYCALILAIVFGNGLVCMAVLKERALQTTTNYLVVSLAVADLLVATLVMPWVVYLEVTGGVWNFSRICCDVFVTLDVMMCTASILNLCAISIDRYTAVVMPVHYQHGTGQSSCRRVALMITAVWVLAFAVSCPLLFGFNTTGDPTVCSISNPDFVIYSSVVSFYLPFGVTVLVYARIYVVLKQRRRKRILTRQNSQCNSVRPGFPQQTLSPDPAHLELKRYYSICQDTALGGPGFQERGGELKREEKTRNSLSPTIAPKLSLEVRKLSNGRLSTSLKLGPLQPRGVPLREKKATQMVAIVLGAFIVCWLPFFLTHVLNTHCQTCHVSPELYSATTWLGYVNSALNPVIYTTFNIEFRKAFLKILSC

[4] = biological target: Beta-2 adrenergic receptor (Homo sapiens, UniProt P07550)
Cannabinoid receptor 1 = Cannabinoid receptor 1 (Homo sapiens, UniProt P21554); type: functional, cell-based
Cannabinoid receptor 1, sequence (P21554 whole entry): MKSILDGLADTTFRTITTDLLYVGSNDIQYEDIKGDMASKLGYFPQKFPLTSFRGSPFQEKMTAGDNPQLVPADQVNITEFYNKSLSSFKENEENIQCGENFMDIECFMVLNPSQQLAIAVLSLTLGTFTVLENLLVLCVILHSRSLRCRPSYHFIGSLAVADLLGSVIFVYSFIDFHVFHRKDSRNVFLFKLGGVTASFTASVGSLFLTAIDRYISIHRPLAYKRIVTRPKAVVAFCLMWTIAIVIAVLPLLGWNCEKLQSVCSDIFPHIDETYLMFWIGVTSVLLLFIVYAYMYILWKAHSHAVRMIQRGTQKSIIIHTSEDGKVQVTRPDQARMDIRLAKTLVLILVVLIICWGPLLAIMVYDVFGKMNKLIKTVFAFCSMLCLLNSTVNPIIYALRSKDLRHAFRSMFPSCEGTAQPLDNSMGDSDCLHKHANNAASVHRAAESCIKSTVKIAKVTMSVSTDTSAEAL

[5] = biological target: 5-hydroxytryptamine receptor 2A (Homo sapiens, UniProt P28223); type: functional, cell-based
5-hydroxytryptamine receptor 2A, sequence (P28223 whole entry): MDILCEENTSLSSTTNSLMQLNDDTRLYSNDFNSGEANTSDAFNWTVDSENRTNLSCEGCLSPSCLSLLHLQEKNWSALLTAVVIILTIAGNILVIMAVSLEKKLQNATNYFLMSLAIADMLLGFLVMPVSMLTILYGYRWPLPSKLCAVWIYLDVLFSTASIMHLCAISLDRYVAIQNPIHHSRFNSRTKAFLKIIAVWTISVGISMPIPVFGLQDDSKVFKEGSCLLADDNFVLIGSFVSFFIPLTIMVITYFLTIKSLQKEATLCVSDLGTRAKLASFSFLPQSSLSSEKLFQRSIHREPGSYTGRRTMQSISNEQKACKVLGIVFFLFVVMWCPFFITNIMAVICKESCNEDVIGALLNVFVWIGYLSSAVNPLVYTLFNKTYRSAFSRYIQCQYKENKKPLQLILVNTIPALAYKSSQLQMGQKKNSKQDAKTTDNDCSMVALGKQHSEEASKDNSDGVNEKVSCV

[6] = biological target: Glutamate receptor ionotropic, NMDA 1 (Rattus norvegicus, UniProt P35439)
Melanocortin receptor 3 = Melanocortin receptor 3 (Homo sapiens, UniProt P41968)
Melanocortin receptor 3, sequence (P41968 whole entry): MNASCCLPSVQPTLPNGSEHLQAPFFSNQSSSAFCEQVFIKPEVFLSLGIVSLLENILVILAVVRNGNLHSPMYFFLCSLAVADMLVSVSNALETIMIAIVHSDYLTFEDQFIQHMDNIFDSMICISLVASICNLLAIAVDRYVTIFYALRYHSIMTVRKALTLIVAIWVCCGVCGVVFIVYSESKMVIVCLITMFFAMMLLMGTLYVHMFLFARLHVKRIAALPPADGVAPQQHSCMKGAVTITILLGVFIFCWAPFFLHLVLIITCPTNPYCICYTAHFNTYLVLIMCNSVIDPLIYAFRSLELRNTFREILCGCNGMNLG

Progesterone receptor = biological target: T4, Progesterone receptor (Homo sapiens, UniProt P06401); type: functional
T4 sequence (P06401 whole entry): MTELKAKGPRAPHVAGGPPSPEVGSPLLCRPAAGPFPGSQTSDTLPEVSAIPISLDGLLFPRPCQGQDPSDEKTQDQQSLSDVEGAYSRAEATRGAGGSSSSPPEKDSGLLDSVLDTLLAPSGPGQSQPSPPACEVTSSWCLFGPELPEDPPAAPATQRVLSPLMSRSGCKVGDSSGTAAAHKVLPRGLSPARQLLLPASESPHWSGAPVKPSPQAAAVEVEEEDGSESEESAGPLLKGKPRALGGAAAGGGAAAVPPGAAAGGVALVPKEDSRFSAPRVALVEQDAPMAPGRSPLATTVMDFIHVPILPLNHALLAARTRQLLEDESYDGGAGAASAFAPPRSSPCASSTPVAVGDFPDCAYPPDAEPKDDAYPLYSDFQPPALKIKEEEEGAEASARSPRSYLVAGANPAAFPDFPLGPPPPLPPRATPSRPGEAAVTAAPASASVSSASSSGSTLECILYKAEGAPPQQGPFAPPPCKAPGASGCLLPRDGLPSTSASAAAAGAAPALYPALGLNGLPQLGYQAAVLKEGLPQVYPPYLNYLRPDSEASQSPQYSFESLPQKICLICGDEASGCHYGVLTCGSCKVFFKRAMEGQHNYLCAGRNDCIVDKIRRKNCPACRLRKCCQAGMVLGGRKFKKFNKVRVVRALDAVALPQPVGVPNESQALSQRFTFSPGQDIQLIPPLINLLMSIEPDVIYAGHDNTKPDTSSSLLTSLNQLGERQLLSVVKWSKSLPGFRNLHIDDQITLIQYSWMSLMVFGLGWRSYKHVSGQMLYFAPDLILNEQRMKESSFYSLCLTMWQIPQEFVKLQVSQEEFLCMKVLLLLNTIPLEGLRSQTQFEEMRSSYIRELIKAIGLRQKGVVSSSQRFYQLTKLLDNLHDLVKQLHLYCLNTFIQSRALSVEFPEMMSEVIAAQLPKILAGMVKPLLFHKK

Motilin receptor = Motilin receptor (Homo sapiens, UniProt O43193)
Motilin receptor, sequence (O43193 whole entry): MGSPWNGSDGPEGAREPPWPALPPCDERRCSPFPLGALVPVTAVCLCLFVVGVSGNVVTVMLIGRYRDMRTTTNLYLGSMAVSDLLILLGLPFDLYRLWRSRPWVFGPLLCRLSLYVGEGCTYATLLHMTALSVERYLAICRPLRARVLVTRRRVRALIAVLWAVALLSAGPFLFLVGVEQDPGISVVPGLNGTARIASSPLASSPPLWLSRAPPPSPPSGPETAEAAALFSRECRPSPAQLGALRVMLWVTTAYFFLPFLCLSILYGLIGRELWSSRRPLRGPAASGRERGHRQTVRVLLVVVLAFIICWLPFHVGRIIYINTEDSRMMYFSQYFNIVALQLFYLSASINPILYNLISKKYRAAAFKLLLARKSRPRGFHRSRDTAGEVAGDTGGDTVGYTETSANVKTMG
Note: assay procedure not described here.

Voltage-dependent L-type calcium channel subunit alpha-1C, sequence (P22002 whole entry): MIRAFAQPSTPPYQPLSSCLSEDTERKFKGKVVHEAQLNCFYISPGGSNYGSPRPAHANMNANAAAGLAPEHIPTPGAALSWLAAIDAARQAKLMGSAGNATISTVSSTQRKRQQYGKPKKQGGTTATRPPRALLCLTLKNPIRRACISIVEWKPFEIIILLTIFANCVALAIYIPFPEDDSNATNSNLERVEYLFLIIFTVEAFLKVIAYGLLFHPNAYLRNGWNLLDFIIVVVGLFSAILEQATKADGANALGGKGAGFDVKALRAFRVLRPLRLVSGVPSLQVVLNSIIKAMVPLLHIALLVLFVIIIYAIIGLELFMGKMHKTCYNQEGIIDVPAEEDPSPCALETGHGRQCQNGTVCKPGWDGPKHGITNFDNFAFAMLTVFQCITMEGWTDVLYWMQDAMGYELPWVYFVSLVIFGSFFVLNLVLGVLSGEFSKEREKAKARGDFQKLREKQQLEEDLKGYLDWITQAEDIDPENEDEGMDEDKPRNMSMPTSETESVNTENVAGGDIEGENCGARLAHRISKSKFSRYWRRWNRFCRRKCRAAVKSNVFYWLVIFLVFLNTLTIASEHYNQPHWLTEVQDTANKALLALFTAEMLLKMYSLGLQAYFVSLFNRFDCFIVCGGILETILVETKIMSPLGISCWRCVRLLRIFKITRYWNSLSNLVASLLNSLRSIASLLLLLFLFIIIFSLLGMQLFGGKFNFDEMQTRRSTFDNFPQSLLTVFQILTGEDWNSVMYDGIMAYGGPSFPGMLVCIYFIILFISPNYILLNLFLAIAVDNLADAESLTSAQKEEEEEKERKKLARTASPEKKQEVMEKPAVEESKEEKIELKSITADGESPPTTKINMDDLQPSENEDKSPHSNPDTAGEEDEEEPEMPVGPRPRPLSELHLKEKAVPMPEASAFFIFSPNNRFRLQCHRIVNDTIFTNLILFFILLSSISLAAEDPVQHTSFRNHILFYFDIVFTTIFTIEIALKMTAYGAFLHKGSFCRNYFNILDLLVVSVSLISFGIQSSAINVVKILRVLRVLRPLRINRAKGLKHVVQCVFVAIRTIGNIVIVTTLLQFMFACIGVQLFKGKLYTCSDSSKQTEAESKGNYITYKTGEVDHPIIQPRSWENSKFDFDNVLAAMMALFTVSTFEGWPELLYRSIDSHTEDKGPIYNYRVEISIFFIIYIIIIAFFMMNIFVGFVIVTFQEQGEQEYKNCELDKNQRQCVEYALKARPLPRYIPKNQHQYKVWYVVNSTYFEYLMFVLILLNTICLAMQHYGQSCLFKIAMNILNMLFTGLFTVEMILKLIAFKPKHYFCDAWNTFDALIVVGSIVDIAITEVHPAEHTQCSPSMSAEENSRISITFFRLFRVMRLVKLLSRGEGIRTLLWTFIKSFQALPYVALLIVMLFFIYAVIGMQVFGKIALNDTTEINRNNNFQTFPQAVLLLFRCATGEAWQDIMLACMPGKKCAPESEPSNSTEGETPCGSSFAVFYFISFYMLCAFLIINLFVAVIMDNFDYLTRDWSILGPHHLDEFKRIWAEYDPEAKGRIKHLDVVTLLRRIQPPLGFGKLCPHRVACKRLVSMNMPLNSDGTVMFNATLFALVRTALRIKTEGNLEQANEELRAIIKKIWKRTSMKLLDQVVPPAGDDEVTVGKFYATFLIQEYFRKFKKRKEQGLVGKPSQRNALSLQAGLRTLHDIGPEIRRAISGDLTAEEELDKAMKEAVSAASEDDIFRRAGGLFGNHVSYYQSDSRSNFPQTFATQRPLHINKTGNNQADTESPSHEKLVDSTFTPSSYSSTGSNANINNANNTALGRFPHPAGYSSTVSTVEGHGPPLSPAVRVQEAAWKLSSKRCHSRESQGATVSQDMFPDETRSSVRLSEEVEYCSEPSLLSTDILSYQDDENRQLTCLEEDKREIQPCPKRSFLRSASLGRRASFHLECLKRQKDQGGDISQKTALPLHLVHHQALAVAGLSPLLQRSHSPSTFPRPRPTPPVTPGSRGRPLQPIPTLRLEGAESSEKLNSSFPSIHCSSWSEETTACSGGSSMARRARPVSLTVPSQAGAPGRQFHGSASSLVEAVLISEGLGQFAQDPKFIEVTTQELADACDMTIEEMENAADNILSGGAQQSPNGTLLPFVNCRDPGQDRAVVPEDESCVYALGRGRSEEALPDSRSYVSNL

Compound	AC50 [1] [µM]	AC50 (Estrogen receptor) [µM]	AC50 [2] [µM]	AC50 (Endothelin-1 receptor) [µM]	AC50 [3] [µM]	AC50 (D(3) dopamine receptor) [µM]	AC50 [4] [µM]	AC50 (Cannabinoid receptor 1) [µM]	AC50 [5] [µM]	AC50 [6] [µM]	AC50 (Melanocortin receptor 3) [µM]	AC50 (Progesterone receptor) [µM]	AC50 (Motilin receptor) [µM]
O=C(O)Cc1cn(-c2ccccc2)nc1-c1ccc(Cl)cc1 [LONAZOLAC]	> 30	> 30	> 30	> 30	> 30	> 30	> 30	> 30	> 30	> 30	> 30	> 30	> 30
C#C[C@]1(O)CC[C@H]2[C@@H]3CCC4=CCCC[C@@H]4[C@H]3CC[C@@]21C [LYNESTRENOL]	> 30	> 30	> 30	> 30	> 30	> 30	> 30	> 30	> 30	> 30	> 30	5.2	> 30
O=C(OCCN1CCOCC1)c1cccnc1Nc1cccc(C(F)(F)F)c1 [MORNIFLUMATE]	> 30	> 30	> 30	> 30	17	> 30	> 30	> 30	> 30	> 30	> 30	> 30	> 30
CCCCCCCCOc1ccccc1C(=O)Nc1ccc(C(=O)OCC[N+](C)(CC)CC)cc1 [OTILONIUM BROMIDE]	16	> 30	> 30	> 1	3.3	2	11	> 30	> 30	> 30	5.1	> 30	5.7
Cc1ccc(-c2nc3ccc(C)cn3c2CC(=O)N(C)C)cc1 [ZOLPIDEM]	> 30	> 30	> 30	> 30	> 30	> 30	> 30	> 30	> 30	> 30	> 30	> 30	> 30
TOCOFERSOLAN	> 30	> 30	> 30	> 30	> 30	> 30	> 30	> 30	> 30	> 30	> 30	> 30	> 30
